Our source for the IC50 values is BindingDB's records for doi:10.1016/j.bmcl.2006.04.076 (Merck Research Laboratories, 2006).

As usually defined, the IC50 is the concentration that inhibits the measured activity by half. A higher IC50 goes with lower potency.

The target in the test is Beta-secretase 1 (Homo sapiens, UniProt P56817). Briefly: In Vitro BACE1 Activity Assay. As to conditions: pH 4.5; 22 °C. The procedure:
The assay was performed using a 96-well format on a HPLC equipped with four 96-well plate holders. Test compounds were preincubated with enzymes for 30 min, followed by the addition of substrate. The solution was then incubated for an additional 30 min at room temperature. After the reaction was terminated, the solution was filtered, and the filtrate was subjected to HPLC analysis. The substrate and product were monitored by fluorescence detection (340nm excitation, 440 nm emission).

Chain of Beta-secretase 1 (P56817 whole entry): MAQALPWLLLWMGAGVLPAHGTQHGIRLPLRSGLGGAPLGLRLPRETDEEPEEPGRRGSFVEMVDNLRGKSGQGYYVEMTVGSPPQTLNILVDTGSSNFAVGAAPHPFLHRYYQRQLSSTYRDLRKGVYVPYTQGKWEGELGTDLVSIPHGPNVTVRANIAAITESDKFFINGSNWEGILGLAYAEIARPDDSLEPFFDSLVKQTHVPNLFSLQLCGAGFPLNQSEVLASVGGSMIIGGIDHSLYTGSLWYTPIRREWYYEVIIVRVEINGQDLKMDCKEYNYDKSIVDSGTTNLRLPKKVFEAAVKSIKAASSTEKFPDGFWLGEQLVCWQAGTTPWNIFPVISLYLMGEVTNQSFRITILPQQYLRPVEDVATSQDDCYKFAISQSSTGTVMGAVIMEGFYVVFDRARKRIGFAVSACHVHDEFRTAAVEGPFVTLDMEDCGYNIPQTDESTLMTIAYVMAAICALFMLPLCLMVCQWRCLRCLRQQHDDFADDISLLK

Consider `C[C@H](NC[C@H](Cc1ccccc1)NC(=O)c1cc(C(=O)N[C@H](C)c2ccc(F)cc2)cc(N(C)S(C)(=O)=O)c1)C(=O)N1CCCC1C(=O)O` (stereo partly drawn) [1-[(2S)-2-{[(2S)-2-[(3-{[(1R)-1-(4-fluorophenyl)ethyl]carbamoyl}-5-(N-methylmethanesulfonamido)phenyl)formamido]-3-phenylpropyl]amino}propanoyl]pyrrolidine-2-carboxylic acid], for which the IC50 worked out at 17.2 µM. This lies in the double-digit micromolar range.

Regarding `CC(C)CNC(=O)[C@H](C)NC[C@H](Cc1ccccc1)NC(=O)c1cc(/C=C\[C@H]2C[C@@H]2C)cc(N(C)S(C)(=O)=O)c1` [N-[(1S)-1-benzyl-2-({(1S)-1-methyl-2-[(2-methylpropyl)amino]-2-oxoethyl}amino)ethyl]-3-{(Z)-2-[(1S,2S)-2-methylcyclopropyl]ethenyl}-5-[methyl(methylsulfonyl)amino]benzamide], the IC50 turned out to be 0.02 µM.
